# How the values were obtained:
# Streptococcus sp. = assay: in vitro antibacterial evaluation, MIC by broth dilution; format: cell-based; details: broth dilution, 18 hours at 35° C.
# Outline: (§1)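 Test organisms, which included recent clinical isolates resistant to methicillin, penicillin and/or vancomycin, were inoculated at 5×10^5 CFU/mL into Muller-Hinton II […] containing antibiotic at 64-0.06 μg/mL. Minimum inhibitory concentrations were then read as the lowest level inhibiting growth.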
# Staphylococcus sp. = assay: as above; format: cell-based; details: broth dilution, 18 hours at 35° C.
# Outline: as §1
# Escherichia coli = assay: as above; format: cell-based; details: 18 hours at 35° C.
# Outline: as §1
# Enterococcus sp. = assay: as above; format: cell-based; details: broth dilution, 18 hours at 35° C.
# Outline: as §1
# [1] = system: Enterococcus faecalis (GC 6189); assay: acute lethal infection in mice; format: in vivo; details: female CD-1 mice, intraperitoneal challenge, intravenous 30 min. after infection, 7 day survival
# Outline: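 Female CD-1 mice (20+/−2 gm) were infected intraperitoneally with enough bacteria, suspended in trypticase soy broth or hog gastric mucin, to kill untreated controls within 24-48 hr. Compound in saline or 5% dextrose was given intravenously 30 min post-infection, five mice per dose. ED50 came from pooled 7 day survival of 3 tests.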
compound,measurement,setting,value
"CC(c1ccccc1)C1NC(=O)CNC(=O)C(CO)NC(=O)C(C(O)C2CNC(=N)N2C2OC(CO)C(O)C(O)C2O)NC(=O)C(C(O)C2CNC(=N)N2)NC(=O)C(Cc2ccc(OC3OC(CO)C(OC4OC5COC(C6CCCC6)OC5C(O)C4O)C(O)C3O)cc2)NC1=O (stereo not drawn) [Example 117, Cyclo[glycyl-β-methylphenylalanyl-O-[4-O-[4,6-O-(cyclopentylmethylene)hexopyranosyl]-hexopyranosyl]tyrosyl-3-(2-iminoiniidazolidin-4-yl)seryl-3-(3-hexopyranosyl-2-iminoimidazolidin-4-yl)serylseryl]]",MIC Streptococcus agalactiae (GC 4564),Streptococcus sp.; Streptococcus agalactiae (GC 4564),0.25 µg/mL
same,MIC Streptococcus pneumoniae (ATCC 6301),Streptococcus sp.; Streptococcus pneumoniae (ATCC 6301),<0.06 µg/mL
same,MIC Streptococcus pneumoniae (GC 1894),Streptococcus sp.; Streptococcus pneumoniae (GC 1894),<0.06 µg/mL
same,MIC Streptococcus pneumoniae (GC 4565),Streptococcus sp.; Streptococcus pneumoniae (GC 4565),0.12 µg/mL
same,MIC Streptococcus pyogenes (GC 4563),Streptococcus sp.; Streptococcus pyogenes (GC 4563),0.25 µg/mL
same,MIC Streptococcus pneumoniae (ATCC 6301),Streptococcus sp.; strain ATCC 6301,<0.06 µg/mL
same,MIC Streptococcus pneumoniae (GC 1894),Streptococcus sp.; strain GC 1894,<0.06 µg/mL
same,MIC Streptococcus pyogenes (GC 4563),Streptococcus sp.; strain GC 4563,0.25 µg/mL
same,MIC Streptococcus agalactiae (GC 4564),Streptococcus sp.; strain GC 4564,0.25 µg/mL
same,MIC Streptococcus pneumoniae (GC 4565),Streptococcus sp.; strain GC 4565,0.12 µg/mL
same,MIC Coagulase Negative Staphylococcus (GC 4547),Staphylococcus sp.,1 µg/mL
same,MIC Coagulase Negative Staphylococcus (GC 4548),Staphylococcus sp.,1 µg/mL
same,MIC Coagulase Negative Staphylococcus (GC 4549),Staphylococcus sp.,1 µg/mL
same,MIC Coagulase Negative Staphylococcus (GC 4551),Staphylococcus sp.,2 µg/mL
same,MIC Coagulase Negative Staphylococcus (GC 6257),Staphylococcus sp.,0.5 µg/mL
same,MIC Staphylococcus aureus (ATCC 29213),Staphylococcus sp.,1 µg/mL
same,MIC Staphylococcus aureus (GC 1131),Staphylococcus sp.,2 µg/mL
same,MIC Staphylococcus aureus (GC 3051),Staphylococcus sp.,1 µg/mL
same,MIC Staphylococcus aureus (GC 3053),Staphylococcus sp.,2 µg/mL
same,MIC Staphylococcus aureus (GC 4541),Staphylococcus sp.,1 µg/mL
same,MIC Staphylococcus aureus (GC 4542),Staphylococcus sp.,1 µg/mL
same,MIC Staphylococcus aureus (GC 4544),Staphylococcus sp.,2 µg/mL
same,MIC Staphylococcus aureus (GC 4545),Staphylococcus sp.,1 µg/mL
same,MIC Staphylococcus aureus-SMITH (GC 4543),Staphylococcus sp.,1 µg/mL
same,MIC Staphylococcus haemolyticus (GC 4546),Staphylococcus sp.,1 µg/mL
same,MIC Staphylococcus aureus (GC 1131),"Staphylococcus sp.; inoculum 5×10^5 CFU/mL, strain GC 1131",2 µg/mL
same,MIC Staphylococcus aureus (ATCC 29213),Staphylococcus sp.; strain ATCC 29213,1 µg/mL
same,MIC Staphylococcus aureus (GC 3051),Staphylococcus sp.; strain GC 3051,1 µg/mL
same,MIC Staphylococcus aureus (GC 3053),Staphylococcus sp.; strain GC 3053,2 µg/mL
same,MIC Staphylococcus aureus (GC 4541),Staphylococcus sp.; strain GC 4541,1 µg/mL
same,MIC Staphylococcus aureus (GC 4542),Staphylococcus sp.; strain GC 4542,1 µg/mL
same,MIC Staphylococcus aureus (GC 4544),Staphylococcus sp.; strain GC 4544,2 µg/mL
same,MIC Staphylococcus aureus (GC 4545),Staphylococcus sp.; strain GC 4545,1 µg/mL
same,MIC Staphylococcus haemolyticus (GC 4546),Staphylococcus sp.; strain GC 4546,1 µg/mL
same,MIC Coagulase Negative Staphylococcus (GC 4547),Staphylococcus sp.; strain GC 4547,1 µg/mL
same,MIC Coagulase Negative Staphylococcus (GC 4548),Staphylococcus sp.; strain GC 4548,1 µg/mL
same,MIC Coagulase Negative Staphylococcus (GC 4549),Staphylococcus sp.; strain GC 4549,1 µg/mL
same,MIC Coagulase Negative Staphylococcus (GC 4551),Staphylococcus sp.; strain GC 4551,2 µg/mL
same,MIC Coagulase Negative Staphylococcus (GC 6257),Staphylococcus sp.; strain GC 6257,0.5 µg/mL
same,MIC Staphylococcus aureus-SMITH (GC 4543),Staphylococcus sp.; strain SMITH GC 4543,1 µg/mL
same,MIC Escherichia coli (ATCC 25922),Escherichia coli; strain ATCC 25922,64 µg/mL
same,MIC Escherichia coli (GC 4559),Escherichia coli; strain GC 4559,32 µg/mL
same,MIC Escherichia coli (GC 4560),Escherichia coli; strain GC 4560,1 µg/mL
same,MIC Enterococcus avium (GC 4558),Enterococcus sp.; Enterococcus avium (GC 4558),4 µg/mL
same,MIC Enterococcus faecalis (ATCC 29212),Enterococcus sp.; Enterococcus faecalis (ATCC 29212),2 µg/mL
same,MIC Enterococcus faecalis (GC 2242),Enterococcus sp.; Enterococcus faecalis (GC 2242),2 µg/mL
same,MIC Enterococcus faecalis (GC 2691),Enterococcus sp.; Enterococcus faecalis (GC 2691),4 µg/mL
same,MIC Enterococcus faecalis (GC 3059),Enterococcus sp.; Enterococcus faecalis (GC 3059),4 µg/mL
same,MIC Enterococcus faecalis (GC 4552),Enterococcus sp.; Enterococcus faecalis (GC 4552),4 µg/mL
same,MIC Enterococcus faecalis (GC 4553),Enterococcus sp.; Enterococcus faecalis (GC 4553),4 µg/mL
same,MIC Enterococcus faecalis (GC 4554),Enterococcus sp.; Enterococcus faecalis (GC 4554),2 µg/mL
same,MIC Enterococcus faecalis (GC 6189),Enterococcus sp.; Enterococcus faecalis (GC 6189),2 µg/mL
same,MIC Enterococcus faecium (GC 2243),Enterococcus sp.; Enterococcus faecium (GC 2243),2 µg/mL
same,MIC Enterococcus faecium (GC 4556),Enterococcus sp.; Enterococcus faecium (GC 4556),2 µg/mL
same,MIC Enterococcus faecium (GC 4557),Enterococcus sp.; Enterococcus faecium (GC 4557),2 µg/mL
same,MIC Enterococcus faecalis (ATCC 29212),Enterococcus sp.; strain ATCC 29212,2 µg/mL
same,MIC Enterococcus faecalis (GC 2242),Enterococcus sp.; strain GC 2242,2 µg/mL
same,MIC Enterococcus faecium (GC 2243),Enterococcus sp.; strain GC 2243,2 µg/mL
same,MIC Enterococcus faecalis (GC 2691),Enterococcus sp.; strain GC 2691,4 µg/mL
same,MIC Enterococcus faecalis (GC 3059),Enterococcus sp.; strain GC 3059,4 µg/mL
same,MIC Enterococcus faecalis (GC 4552),Enterococcus sp.; strain GC 4552,4 µg/mL
same,MIC Enterococcus faecalis (GC 4553),Enterococcus sp.; strain GC 4553,4 µg/mL
same,MIC Enterococcus faecalis (GC 4554),Enterococcus sp.; strain GC 4554,2 µg/mL
same,MIC Enterococcus faecium (GC 4556),Enterococcus sp.; strain GC 4556,2 µg/mL
same,MIC Enterococcus faecium (GC 4557),Enterococcus sp.; strain GC 4557,2 µg/mL
same,MIC Enterococcus avium (GC 4558),Enterococcus sp.; strain GC 4558,4 µg/mL
same,MIC Enterococcus faecalis (GC 6189),Enterococcus sp.; strain GC 6189,2 µg/mL
same,"median effective dose (ED50), Enterococcus faecalis (GC 6189)",[1],0.38 mg/kg

# From patent US6914045B2, “Glycopeptide antibiotics” (Wyeth Holdings Corporation, priority 2001, dated 2005)
